Assay results taken from patent US8586618B2, “Furanone compounds and lactam analogues thereof” (Biosignal Limited, priority 2006, dated 2013).

Legend:
[1] = tested on: V. fischeri luxRI system (AHL quorum sensing, gfp fused to luxI promoter); assay: N-acylated homoserine lactone (AHL) quorum sensing assay, GFP reporter strain; type: cell-based, E. coli; details: for ID40 at 3 nM OHHL: value in brackets; for AIC40: inhibition index: slope of ID40 vs AHL concentration, lower is better
Procedure: Compounds of the present invention were compared to compounds of the prior art in order using an AHL-quorum sensing assay which utilises a reporter strain that expresses Green Fluorescent Protein (GFP) in the presence of AHL signals. The assay is performed by measuring GFP output in the presence of the compound to be measured and comparing the output to a control. By using multiple samples at varying concentrations of compound and AHL, an inhibition index of compound activity can be generated. The inhibition index used in the present example is the relative amount of compound required to reduce GFP expression to 40% of the control. The inhibition index is termed AIC40. Lower values of AIC40 represent better inhibitors of the AHL quorum sensing system.
The reporter strain of bacterium used in this assay is E. coli into which the V. fischeri luxRI system has been engineered. A gfp gene is fused to the QS controlled luxI promoter as is described in (Andersen et al., 2001, and Andersen et al, 1998).
Measurement of AIC40 (ID40 at 3 nM OHHL)
Determination of the activity of compounds using the E. coli based luxRI construct was performed as follows.
In a 15 mL plastic tube, mix 3 mL of o.n. culture of the lux reporter strain with 12 mL fresh medium, incubate at 37° C. Label six tubes, 10, 20, two 50 and two 100. To each of the tubes, add OHHL (3-oxohexanoyl homoserine lactone) to a final concentration of 10, 20, 50, or 100 nM respectively in the AB medium (add enough medium to distribute across the appropriate number of wells). To the first row of the microplate (row A), add 200 ul of the OHHL/AB mixture. To the remaining rows (B-H) add 100 ul of the OHHL/AB mixture. To the first row (A) add compounds to be tested to the 200 ul mixture of OHHL/AB. Make a dilution series in the first 7 rows by transferring 100 μL from wells in row 1 to wells in row 2 and so on. Discard the remaining 100 μL from row 7. Add 100 μL diluted lux monitor to each well. Incubate the plate 2 hours at 37° C. and measure green fluorescence using the “Victor” plate reader.
Calculate ID40 for each column. To do this, calculate the relative activity in each well. […] Make a plot for each concentration of OHHL vs. the range of compound concentrations used. Calculate the amount of compound needed to lower the relative activity to 40%, this is termed inhibiting dose 40%, ID40. For each compound an inhibition index, AIC40, is found as follows: plot ID40 against its respective AHL concentration; AIC40 is the slope of the best straight line through the plotted points and origin.

[2] = tested on: LasR quorum sensing system; assay: LasR assay (unstable gfp fused to elastase promoter); type: cell-based, Pseudomonas aeruginosa; details: for inhibition at 25 µg/mL / inhibition at 50 µg/mL / inhibition at 100 µg/mL: Pseudomonas aeruginosa; for inhibition at 25 µg/mL: read-out: LasR (% inhibition at 25 ug/ml compound); for inhibition at 50 µg/mL: read-out: LasR % inhibition at 50 μg/ml; for inhibition at 100 µg/mL: read-out: LasR % inhibition at 100 μg/ml; for LasR % inhibition at 100 μg/ml: 100 μg/ml compound
Procedure: Compounds of the present invention were also assayed using a LasR assay. The LasR assay provides a measurement of quorum sensing inhibition activity. […] In the LasR assay, an unstable gfp has been fused to the elastase promoter, so that the amount of Gfp is regulated by the QS system. The plasmid is put into Pseudomonas aeruginosa which makes its own AHL signals. The assay is performed by adding the compounds to be tested to the system at the beginning of the experiment, at different concentrations. Gfp expression is measured at different times during growth, ending at the 24 h time point. The percentage fluorescence was determined at the time point when the fluorescence reached its maximum in the control, usually around 11-12 h after inoculation.

[3] = tested on: E. coli biofilm; assay: Inhibition of biofilm formation, Petri dish model, E. coli; type: cell-based; details: 48 h exposure
Procedure: (§1) Compounds were run in a Petri dish model—where the cells of E. coli or Pseudomonas aeruginosa were exposed to the compound for 48 h. The amount of biofilm was determined by combining image data of the XY (surface cover in one plane) and XZ (depth). The controls gave good biofilm cover and some structure formation.

[4] = tested on: Pseudomonas aeruginosa biofilm; assay: Inhibition of biofilm formation, Petri dish model, Pseudomonas aeruginosa; type: cell-based; details: 10 μg/mL, 48 h exposure
Procedure: as §1

[5] = amount lowering GFP activity to 40%

| Compound | AIC40 [1] | inhibition at 25 µg/mL [2] | melting point | also measured |
| --- | --- | --- | --- | --- |
| O=C1C=C(c2ccc(F)cc2F)CO1 [Compound 1, 4-(2′,4′-Difluorophenyl)furan-2(5H)-one] | 7.6 |  |  | ID40 at 3 nM OHHL [1, 5]: 17.83 |
| O=C1C=C(c2ccc(F)cc2)CO1 [Compound 2, 4-(4′-Fluorophenyl)furan-2(5H)-one] | 14.39 |  |  | ID40 at 3 nM OHHL [1, 5]: 39.4 |
| O=C1C=C(c2ccc(C(F)(F)F)cc2)CO1 [Compound 3, 4-(4′-Trifluoromethylphenyl)furan-2(5H)-one] | 0.77 | 22% |  | ID40 at 3 nM OHHL [1, 5]: 4.37 |
| O=C1C=C(c2ccc(OC(F)(F)F)cc2)CO1 [Compound 5, 4-(4′-Trifluoromethoxyphenyl)furan-2(5H)-one] | 5.9 | 19.3% | 122 to 123 °C | ID40 at 3 nM OHHL [1, 5]: 11.37; inhibition at 50 µg/mL [2]: 43.2% |
| O=C1C=C(c2cccs2)CO1 [Compound 6, 4-(Thiophen-2′-yl)furan-2(5H)-one] | 24.6 | 10% | 94 to 96.5 °C | ID40 at 3 nM OHHL [1, 5]: 58.7; % biofilm ([3]; 25 μg/mL): 87.7%; % biofilm ([3]; 40 μg/mL): 97%; % biofilm [4]: 77% |
| Cc1noc(C)c1C1=CC(=O)OC1 [Compound 7, 4-(3′,5′-Dimethylisoxazol-4′-yl)furan-2(5H)-one] |  |  | 101 to 103 °C |  |
| O=C1C=C(c2cccc(C(F)(F)F)c2)CO1 [Compound 8, 4-(3′-Trifluoromethylphenyl)furan-2(5H)-one] |  | 22% | 124 to 125 °C | inhibition at 50 µg/mL [2]: 42.2% |
| O=C1C=C(c2ccccc2C(F)(F)F)CO1 [Compound 9, 4-(2′-Trifluoromethylphenyl)furan-2(5H)-one] |  |  | 49 to 50 °C |  |
| O=C1C=C(Br)CO1 [Compound 11, 4-Bromofuran-2(5H)-one] |  |  | 72 to 74 °C |  |
| Cn1cc(C2=CC(=O)OC2)cn1 [Compound 12, 4-(N-Methylpyrazol-4′-yl)furan-2(5H)-one] |  |  | 181 to 182 °C | inhibition at 50 µg/mL [2]: 22.9% |
| O=C1C=C(c2ccccc2)/C(=C/c2cccc(C(F)(F)F)c2)O1 [Compound 13] |  |  | 108 to 110 °C |  |
| O=C1C=C(c2ccsc2)CO1 [Compound 14, 4-(Thiophen-3′-yl)furan-2(5H)-one] | 4.9 | 15% | 130.5 to 132 °C | ID40 at 3 nM OHHL [1]: 60 µM |
| O=C1C=C(c2ccc(C(F)(F)F)cc2C(F)(F)F)CO1 [Compound 15, 4-(2′,4′-Bis(trifluoromethyl)phenyl)furan-2(5H)-one] |  |  | 116 to 117 °C |  |
| O=C1C=C(c2ccc(C(F)(F)F)cc2)/C(=C/c2ccc(C(F)(F)F)cc2)O1 [Compound 17, (Z)-4-(4′-(trifluoromethyl)phenyl)-5-(4″-(trifluoromethyl)benzylidene)furan-2(5H)-one] |  |  | 127.5 to 129 °C |  |
| O=C1C=C(c2ccc(OC(F)(F)F)cc2)/C(=C/c2ccc(OC(F)(F)F)cc2)O1 [Compound 21, (Z)-4-(4′-(Trifluoromethoxy)phenyl)-5-(4″-(trifluoromethoxy)benzylidene)furan-2(5H)-one] | 4.4 | 14.7% |  | ID40 at 3 nM OHHL [1, 5]: 148; inhibition at 100 µg/mL [2]: 47% |
| O=C1C=C(c2cccc(C(F)(F)F)c2)/C(=C/c2cccc(C(F)(F)F)c2)O1 [Compound 24] |  | 19% |  | inhibition at 100 µg/mL [2]: 35% |
| O=C1C=C(Br)/C(=C/c2ccsc2)O1 [Compound 25] |  | 20% |  | inhibition at 100 µg/mL [2]: 78% |
| O=C1C=C(Br)/C(=C/c2cccs2)O1 [Compound 26] |  | 30% |  | inhibition at 100 µg/mL [2]: 76% |
| CC1OC(=O)C=C1c1ccccc1 (centres unmarked) [Compound 27, 5-methyl-4-phenyl-2(5H)furanone] |  | 9% |  | inhibition at 100 µg/mL [2]: 57% |
| O=C1C=C(c2ccc(Br)cc2)CN1 [Compound 35, 4-(4′-Bromophenyl)-pyrrol-2(5H)-one] |  |  | 233 to 235 °C (dec.) |  |
| O=C1C=C(c2ccc(F)cc2)CN1 [Compound 36, 4-(4′-Fluorophenyl)-1H-pyrrol-2(5H)one] |  |  | 190 °C |  |
| (Z)-4-(3′-(Trifluoromethyl)phenyl)-5-(3″-(trifluoromethyl)benzylidene)furan-2(5H)-one [Compound 23] | 4.64 |  |  | ID40 at 3 nM OHHL [1, 5]: 22.1; LasR (% inhibition at 25 ug/ml compound) [2]: 23%; LasR % inhibition at 100 μg/ml [2]: 46.4% |
| (Z)-5-(4-(trifluoromethyl)benzylidene)furan-2(5H)-one [Compound 29] |  |  |  | LasR (% inhibition at 25 ug/ml compound) [2]: 15.8%; LasR % inhibition at 100 μg/ml [2]: 38.4% |
| (Z)-5-(4-fluorobenzylidene)furan-2(5H)-one [Compound 28] |  |  |  | LasR (% inhibition at 25 ug/ml compound) [2]: 13%; LasR % inhibition at 100 μg/ml [2]: 53% |
